The source of these data is patent US12187742B2 (XRAD Therapeutics, Inc., priority 2018, dated 2025).

Each structure is given as a SMILES string. Where a name gives a salt, the structure may show the parent alone.

The target of one experiment is ATM (Homo sapiens (Human), UniProt Q13315). In words: ATM in Cell Western Assay (pKAP1 in etoposide-treated MCF-7 cells). Type of experiment: cell-based. The settings on record: MCF-7 cells, etoposide 100 μM, 1 hr, pKAP1 readout. Summed up: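 After paraformaldehyde fixation and Triton X-100 permeabilization, immunostained plates were read by infrared scanning (ODYSSEY CLx). Compound was given as 10 doses, 3-fold dilutions from a 1 μM final top concentration.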

Another experiment deals with DNA-PK (Homo sapiens (Human), UniProt P78527). The experiment in a line: DNA-PK Enzyme-Linked Immunosorbent Assay (phosphorylation of GST-p53 (1-101) peptide). Type of experiment: biochemical. The settings on record: ELISA, ATP 20 μM. The method in brief:
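Inhibition measured by 450 nm absorbance after HRP/TMB detection of phospho-Ser15 on immobilized GST-p53 (1-101). The kinase reaction used 0.1 μg/mL DNA-PK and 20 μM ATP, 1 h at 25 °C. Ten 3-fold compound dilutions, top final concentration 100 nM.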
A general note: ELISA stands for enzyme-linked immunosorbent assay.

Chain of ATM (Q13315 whole entry): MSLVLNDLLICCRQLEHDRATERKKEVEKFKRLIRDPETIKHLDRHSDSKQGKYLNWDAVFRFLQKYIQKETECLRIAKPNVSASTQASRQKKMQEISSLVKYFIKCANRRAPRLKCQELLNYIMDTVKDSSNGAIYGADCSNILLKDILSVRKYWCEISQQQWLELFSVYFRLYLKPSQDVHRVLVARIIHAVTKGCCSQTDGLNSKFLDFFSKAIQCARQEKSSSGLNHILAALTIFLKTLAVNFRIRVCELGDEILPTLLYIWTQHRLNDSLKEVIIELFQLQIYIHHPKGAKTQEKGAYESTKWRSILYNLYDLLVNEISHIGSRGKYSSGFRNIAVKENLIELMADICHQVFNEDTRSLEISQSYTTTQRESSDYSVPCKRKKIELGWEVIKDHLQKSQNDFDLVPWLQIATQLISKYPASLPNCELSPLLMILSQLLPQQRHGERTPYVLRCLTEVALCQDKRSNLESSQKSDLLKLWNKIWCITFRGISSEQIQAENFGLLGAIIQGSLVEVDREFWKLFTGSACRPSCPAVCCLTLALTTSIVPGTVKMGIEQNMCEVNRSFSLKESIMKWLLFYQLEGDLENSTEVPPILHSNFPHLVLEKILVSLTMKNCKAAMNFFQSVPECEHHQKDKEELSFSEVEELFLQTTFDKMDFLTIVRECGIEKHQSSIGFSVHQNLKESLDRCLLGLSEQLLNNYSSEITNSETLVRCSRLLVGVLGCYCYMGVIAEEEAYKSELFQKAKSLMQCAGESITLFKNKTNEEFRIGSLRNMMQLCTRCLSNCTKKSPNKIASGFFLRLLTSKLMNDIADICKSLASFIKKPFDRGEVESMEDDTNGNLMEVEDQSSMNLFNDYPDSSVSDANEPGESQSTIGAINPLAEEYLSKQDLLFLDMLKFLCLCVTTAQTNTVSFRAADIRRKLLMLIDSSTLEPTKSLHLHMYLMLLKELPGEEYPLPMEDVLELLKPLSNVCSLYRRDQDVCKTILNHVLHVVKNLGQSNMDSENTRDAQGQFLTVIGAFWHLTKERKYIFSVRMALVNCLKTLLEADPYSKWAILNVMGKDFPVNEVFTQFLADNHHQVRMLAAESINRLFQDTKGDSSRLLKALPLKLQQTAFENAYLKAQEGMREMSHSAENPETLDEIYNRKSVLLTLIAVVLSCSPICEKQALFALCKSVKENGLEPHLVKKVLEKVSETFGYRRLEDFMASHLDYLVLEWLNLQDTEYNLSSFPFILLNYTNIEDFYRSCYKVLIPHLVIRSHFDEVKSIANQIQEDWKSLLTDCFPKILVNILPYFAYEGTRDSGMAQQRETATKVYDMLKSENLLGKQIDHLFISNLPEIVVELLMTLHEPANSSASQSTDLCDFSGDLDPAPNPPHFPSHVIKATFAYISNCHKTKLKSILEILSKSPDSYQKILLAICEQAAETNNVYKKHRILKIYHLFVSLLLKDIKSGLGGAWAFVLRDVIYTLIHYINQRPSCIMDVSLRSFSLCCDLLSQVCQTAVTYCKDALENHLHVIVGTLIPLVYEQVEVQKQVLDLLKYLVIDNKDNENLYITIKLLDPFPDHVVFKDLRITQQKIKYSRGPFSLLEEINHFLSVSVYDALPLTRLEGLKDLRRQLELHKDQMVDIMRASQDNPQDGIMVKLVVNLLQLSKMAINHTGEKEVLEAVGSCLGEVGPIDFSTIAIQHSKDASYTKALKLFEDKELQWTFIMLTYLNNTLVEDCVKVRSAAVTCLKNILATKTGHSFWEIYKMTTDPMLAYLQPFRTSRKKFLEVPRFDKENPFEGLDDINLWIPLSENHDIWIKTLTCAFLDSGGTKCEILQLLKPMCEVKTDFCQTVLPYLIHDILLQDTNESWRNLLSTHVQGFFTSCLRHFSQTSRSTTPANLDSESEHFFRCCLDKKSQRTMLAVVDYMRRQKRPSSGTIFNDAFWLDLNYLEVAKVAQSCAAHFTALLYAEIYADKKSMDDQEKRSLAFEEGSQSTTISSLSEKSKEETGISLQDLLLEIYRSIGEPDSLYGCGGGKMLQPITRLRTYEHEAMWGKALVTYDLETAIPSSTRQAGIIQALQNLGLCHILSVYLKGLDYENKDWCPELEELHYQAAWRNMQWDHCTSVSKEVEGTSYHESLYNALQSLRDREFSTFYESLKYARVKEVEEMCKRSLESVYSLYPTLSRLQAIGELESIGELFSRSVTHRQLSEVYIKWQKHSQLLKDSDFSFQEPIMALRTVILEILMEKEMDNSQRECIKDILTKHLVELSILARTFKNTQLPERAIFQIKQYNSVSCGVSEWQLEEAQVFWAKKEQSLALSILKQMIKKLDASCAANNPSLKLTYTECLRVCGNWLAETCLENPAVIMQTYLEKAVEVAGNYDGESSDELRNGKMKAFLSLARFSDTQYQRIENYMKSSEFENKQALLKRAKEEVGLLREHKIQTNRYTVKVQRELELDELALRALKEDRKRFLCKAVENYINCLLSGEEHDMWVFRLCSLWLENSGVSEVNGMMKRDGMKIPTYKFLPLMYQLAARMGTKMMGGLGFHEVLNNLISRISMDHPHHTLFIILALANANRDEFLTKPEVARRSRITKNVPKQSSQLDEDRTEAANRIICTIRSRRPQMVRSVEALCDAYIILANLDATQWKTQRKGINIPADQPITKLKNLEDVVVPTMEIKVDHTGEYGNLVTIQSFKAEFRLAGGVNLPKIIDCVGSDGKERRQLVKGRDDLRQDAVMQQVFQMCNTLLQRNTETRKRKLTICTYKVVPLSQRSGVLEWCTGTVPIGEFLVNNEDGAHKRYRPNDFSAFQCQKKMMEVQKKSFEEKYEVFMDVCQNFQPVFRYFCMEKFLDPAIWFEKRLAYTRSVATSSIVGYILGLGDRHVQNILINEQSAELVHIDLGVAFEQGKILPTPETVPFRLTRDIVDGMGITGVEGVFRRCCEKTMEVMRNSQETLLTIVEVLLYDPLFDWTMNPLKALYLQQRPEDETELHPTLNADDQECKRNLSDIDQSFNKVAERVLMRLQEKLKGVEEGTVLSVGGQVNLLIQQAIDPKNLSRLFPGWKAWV

In the case of `CN1C(=O)C2(CCC2)c2c1cnc1cc(F)c(-c3cnc(OCCCN4CCC(F)CC4)c(NS(C)(=O)=O)c3)cc21` [Example 297, N-(5-(7′-Fluoro-3′-methyl-2′-oxo-2′,3′-dihydrospiro[cyclobutane-1,1′-pyrrolo[2,3-c]quinolin]-8′-yl)-2-(3-(4-fluoropiperidin-1-yl)propoxy)pyridin-3-yl)methanesulfonamide hydrochloride], the IC50 against ATM and against DNA-PK was 1 to 100 nM throughout.

With `CN1CCN(CCCOc2ncc(-c3ccc4ncc5c(c4c3)C3(CCC3)C(=O)N5C)cc2NS(C)(=O)=O)CC1` [Example 299, N-(5-(3′-Methyl-2′-oxo-2′,3′-dihydrospiro[cyclobutane-1,1′-pyrrolo[2,3-c]quinolin]-8′-yl)-2-(3-(4-methylpiperazin-1-yl)propoxy)pyridin-3-yl)methanesulfonamide], the IC50 against ATM and at DNA-PK was 1 to 100 nM each time.

Regarding `CN1C(=O)C2(CCC2)c2c1cnc1ccc(-c3cnc(OCCCN4CCCCC4)c(NS(=O)(=O)C(F)F)c3)cc21` [Example 302, 1,1-Difluoro-N-(5-(3-methyl-2′-oxo-2′,3′-dihydrospiro[cyclobutane-1,1′-pyrrolo[2,3-c]quinolin]-8-yl)-2-(3-(piperidin-1-yl)propoxy)pyridin-3-yl)methanesulfonamide], the IC50 (usually the point on the concentration scale where inhibition reaches its midpoint) at ATM is 1 to 100 nM; against DNA-PK, below 0.5 nM.

Turning to `CN1C(=O)C2(CCC2)c2c1cnc1ccc(-c3cnc(OCCCN4CCOCC4)c(NS(=O)(=O)N(C)C)c3)cc21` [Example 304, 8′-{5-[(Dimethylsulfamoyl)amino]-6-[3-(morpholin-4-yl)propoxy]pyridin-3-yl)-3′-methyl-2′,3′-dihydrospiro[cyclobutane-1,1′-pyrrolo[2,3-c]quinoline]-2′-one], the IC50 was 1 to 100 nM at ATM and 0.5 to 1 nM against DNA-PK.

Consider `CN1C(=O)C2(CCC2)c2c1cnc1ccc(-c3cnc(OCCCN4CCOCC4)c(NS(C)(=O)=O)c3)cc21` [Example 305, N-(5-(3′-Methyl-2′-oxo-2′,3′-dihydrospiro[cyclobutane-1,1′-pyrrolo[2,3-c]quinolin]-8′-yl)-2-(3-morpholinopropoxy)pyridin-3-yl)methanesulfonamide], for which the IC50 against ATM and against DNA-PK was 1 to 100 nM in each case.

Take `CN1C(=O)C2(CCC2)c2c1cnc1ccc(-c3cnc(OCCCN4CCOCC4)c(NS(=O)(=O)C4CC4)c3)cc21` [Example 306, N-(5-(3′-Methyl-2′-oxo-2′,3′-dihydrospiro[cyclobutane-1,1′-pyrrolo[2,3-c]quinolin]-8′-yl)-2-(3-morpholinopropoxy)pyridin-3-yl)cyclopropanesulfonamide]: the IC50 at ATM and at DNA-PK was 1 to 100 nM in each case.

Regarding `CN1C(=O)C2(CCC2)c2c1cnc1ccc(-c3cnc(OCCNC(C)(C)C)c(NS(C)(=O)=O)c3)cc21` [Example 309], the IC50 against ATM was 1 to 100 nM; on DNA-PK it was 0.5 to 1 nM.

For the molecule `COC1CN(S(=O)(=O)Nc2cc(-c3cc4c5c(cnc4cc3F)N(C)C(=O)C53CCC3)cnc2N2CC(N(C)C)C2)C1` [Example 311, N-(2-(3-(Dimethylamino)azetidin-1-yl)-5-(7′-fluoro-3′-methyl-2′-oxo-2′,3′-dihydrospiro[cyclobulane-1,1′-pyrrolo[2,3-c]quinolin]-8′-yl)pyridin-3-yl)-3-methoxyazetidine-1-sulfonamide formate], the IC50 against ATM and on DNA-PK was 1 to 100 nM throughout.

For the molecule `CN1C(=O)C2(CCC2)c2c1cnc1cc(F)c(-c3cnc(N4CC(N(C)C)C4)c(NS(=O)(=O)c4ccc(F)cc4F)c3)cc21` [Example 315, N-(2-(3-(Dimethylamino)azetidin-1-yl)-5-(7′-fluoro-3′-methyl-2′-oxo-2′,3′-dihydrospiro[cyclobulane-1,1′-pyrrolo[2,3-c]quinolin]-8′-yl)pyridin-3-yl)-2,4-difluorobenzenesulfonamide hydrochloride], the IC50 at ATM and on DNA-PK was 1 to 100 nM each time.

Regarding `CN1C(=O)C2(CCC2)c2c1cnc1cc(F)c(-c3cnc(N4CC(N(C)C)C4)c(NS(=O)(=O)N(C)C)c3)cc21` [Example 316, 8′-{6-[3-(Dimethylamino)azetidin-1-yl]-5-[(dimethylsulfamoyl)amino]pyridin-3-yl}-7′-fluoro-3′-methyl-2′,3′-dihydrospiro[cyclobulane-1,1′-pyrrolo[2,3-c]quinoline]-2′-one hydrochloride], the IC50 against ATM and at DNA-PK was 1 to 100 nM throughout.

On to `CN1C(=O)C2(CCC2)c2c1cnc1cc(F)c(-c3cnc(N4CC(N(C)C)C4)c(NS(C)(=O)=O)c3)cc21` [Example 317, N-(2-(3-(Dimethylamino)azetidin-1-yl)-5-(7′-fluoro-3′-methyl-2′-oxo-2′,3′-dihydrospiro[cyclobulane-1,1′-pyrrolo[2,3-c]quinolin]-8′-yl)pyridin-3-yl)methanesulfonamide hydrochloride], for which the half-inhibitory concentration (IC50) against ATM and against DNA-PK was 1 to 100 nM in each case.

With `CCS(=O)(=O)Nc1cc(-c2ccc3ncc4c(c3c2)C2(CCC2)C(=O)N4C)cnc1N1CC(N(C)C)C1` [Example 318, N-(2-(3-(Dimethylamino)azetidin-1-yl)-5-(3′-methyl-2′-oxo-2′,3′-dihydrospiro [cyclobulane-1,1′-pyrrolo[2,3-c]quinolin]-8′-yl)pyridin-3-yl)etlianesulfonamide], the IC50 at ATM is 1 to 100 nM; on DNA-PK, 0.5 to 1 nM.

Turning to `CN1C(=O)C2(CCC2)c2c1cnc1cc(F)c(-c3cnc(N4CC(N(C)C)C4)c(NS(=O)(=O)C4CC4)c3)cc21` [Example 319, N-(2-(3-(Dimethylamino)azetidin-1-yl)-5-(7′-fluoro-3′-methyl-2′-oxo-2′,3′-dihydrospiro[cyclobulane-1,1′-pyrrolo[2,3-c]quinolin]-8′-yl)pyridin-3-yl)cyclopropanesulfonamide hydrochloride], the IC50 at ATM and against DNA-PK was 1 to 100 nM throughout.

As to `CN1C(=O)C2(CCC2)c2c1cnc1ccc(-c3cnc(N4CC(N(C)C)C4)c(NS(=O)(=O)C4CC4)c3)cc21` [Example 320, N-(2-(3-(Dimethylamino)azetidin-1-yl)-5-(3′-methyl-2′-oxo-2′,3′-dihydrospiro[cyclobulane-1,1′-pyrrolo[2,3-c]quinolin]-8′-yl)pyridin-3-yl)cyclopropanesulfonamide], the IC50 against ATM and against DNA-PK was 1 to 100 nM each time.

As to `Cc1ccc(S(=O)(=O)Nc2cc(-c3cc4c5c(cnc4cc3F)N(C)C(=O)C53CCC3)cnc2N2CC(N(C)C)C2)cc1` [Example 323, N-(2-(3-(Dimethylamino)azetidin-1-yl)-5-(7′-fluoro-3′-methyl-2′-oxo-2′,3′-dihydrospiro[cyclobutane-1,1′-pyrrolo[2,3-c]quinolin]-8′-yl)pyridin-3-yl)-4-methylbenzenesulfonamide hydrochloride], the IC50 on ATM and against DNA-PK was 1 to 100 nM throughout.

In the case of `CN1C(=O)C2(CCC2)c2c1cnc1cc(F)c(-c3cnc(N4CC(N(C)C)C4)c(NS(=O)(=O)c4ccccc4)c3)cc21` [Example 324, N-(2-(3-(Dimethylamino)azetidin-1-yl)-5-(7′-fluoro-3′-methyl-2′-oxo-2′,3′-dihydrospiro[cyclobutane-1,1′-pyrrolo[2,3-c]quinolin]-8′-yl)pyridin-3-yl)benzenesulfonamide hydrochloride], the IC50 at ATM and against DNA-PK was 1 to 100 nM in each case.

For the molecule `CC1CCC12C(=O)N(C)c1cnc3ccc(-c4cnc(N5CC(N(C)C)C5)c(NS(C)(=O)=O)c4)cc3c12` (stereo not drawn) [Example 325, N-(5-(2,3′-Dimethyl-2′-oxo-2′,3′-dihydrospiro[cyclobutane-1,1′-pyrrolo[2,3-c]quinolin]-8′-yl)-2-(3-(dimethylamino)azetidin-1-yl)pyridin-3-yl)methanesulfonamideformate], the IC50 at ATM and at DNA-PK was 1 to 100 nM in each case.

As to `CCN(C)C1CN(c2ncc(-c3ccc4ncc5c(c4c3)C3(CCC3)C(=O)N5C)cc2NS(C)(=O)=O)C1` [Example 326, N-(2-(3-(Ethyl(methyl)amino)azetidin-1-yl)-5-(3′-methyl-2′-oxo-2′,3′-dihydrospiro[cyclobutane-1,1′-pyrrolo[2,3-c]quinolin]-8′-yl)pyridin-3-yl)methanesulfonamide hydrochloride], the IC50 on ATM fell in the range of 1 to 100 nM; against DNA-PK it was 0.5 to 1 nM.

Take `CNC1CN(c2ncc(-c3ccc4ncc5c(c4c3)C3(CCC3)C(=O)N5C)cc2NS(C)(=O)=O)C1` [Example 329, N-(5-(3′-Methyl-2′-oxo-2′,3′-dihydrospiro[cyclobutane-1,1′-pyrrolo[2,3-c]quinolin]-8′-yl)-2-(3-(methylamino)azetidin-1-yl)pyridin-3-yl) methanesulfonamide formate]: the results for the half-inhibitory concentration (IC50) on ATM and against DNA-PK were 1 to 100 nM and below 0.5 nM, respectively.

As to `CNC1CN(c2ncc(-c3cc4c5c(cnc4cc3F)N(C)C(=O)C53CCC3)cc2NS(C)(=O)=O)C1` [Example 330, N-(5-(7′-Fluor-3′-methyl-2′-oxo-2′,3′-dihydrospiro [cyclobutane-1,1-pyrrolo[2,3-c]quinolin]-8′-yl)-2-(3-(methylamino)azetidin-1-yl)pyridin-3-yl) methanesulfonamide formate], the figures for the half-inhibitory concentration (IC50) on ATM and at DNA-PK were 1 to 100 nM and 0.5 to 1 nM, respectively.

Take `CCNC1CN(c2ncc(-c3cc4c5c(cnc4cc3F)N(C)C(=O)C53CCC3)cc2NS(C)(=O)=O)C1` [Example 331, N-(2-(3-(Ethylamino)azetidin-1-yl)-5-(7′-fluoro-3′-methyl-2′-oxo-2′,3′-dihydrospiro [cyclobutane-1,1′-pyrrolo [2,3-c]quinolin]-8′-yl)pyridin-3-yl)methanesulfonamide]: the IC50 against ATM was in the range of 1 to 100 nM; at DNA-PK, 0.5 to 1 nM.
